Laboratory results reported in patent US20240174662A1, “SMALL MOLECULE INHIBITORS OF SALT INDUCIBLE KINASES” (Janssen Biotech, Inc., priority 2021, published 2024).

The molecules below were run against SIK2 (Homo sapiens (Human), UniProt Q9H0K1) (assay: SIK2 Enzymatic Assay Version 2 (High ATP)). Conditions: 3 mM ATP and 200 μM HDAC5tide final, ADP-Glo Max luminescence.
Format: biochemical
Procedure: All steps were performed at room temperature. Compounds were pre-plated onto an assay plate using an Echo acoustic dispenser (Labcyte, […] or […]) at 80 nL per well. Enzyme prepared in assay buffer at 6 nM (2× final concentration) was added at 4 μL per well using the Multidrop Combi (Thermo Fisher-used for all additions in this assay) to the assay plate, spun for 1 min at 1000 rpm (Allegra 6KR Beckman Coulter centrifuge), and incubated with compound for 30 minutes. […] ADP-Glo Max Reagent (prepared and aliquoted as per manufacturer instructions) was then added at 8 μL per well, spun and incubated for 2 hours. ADP-Glo Max Detection (prepared and aliquoted as per manufacturer instructions) was added at 8 μL per well to the assay plate, which was spun and incubated for 1 hour. The plate was then read on the Pherastar (BMG Labtech) using a luminescence read. Gain was set between 2200-2500.

Chain of SIK2 (Q9H0K1 whole entry, species assumed): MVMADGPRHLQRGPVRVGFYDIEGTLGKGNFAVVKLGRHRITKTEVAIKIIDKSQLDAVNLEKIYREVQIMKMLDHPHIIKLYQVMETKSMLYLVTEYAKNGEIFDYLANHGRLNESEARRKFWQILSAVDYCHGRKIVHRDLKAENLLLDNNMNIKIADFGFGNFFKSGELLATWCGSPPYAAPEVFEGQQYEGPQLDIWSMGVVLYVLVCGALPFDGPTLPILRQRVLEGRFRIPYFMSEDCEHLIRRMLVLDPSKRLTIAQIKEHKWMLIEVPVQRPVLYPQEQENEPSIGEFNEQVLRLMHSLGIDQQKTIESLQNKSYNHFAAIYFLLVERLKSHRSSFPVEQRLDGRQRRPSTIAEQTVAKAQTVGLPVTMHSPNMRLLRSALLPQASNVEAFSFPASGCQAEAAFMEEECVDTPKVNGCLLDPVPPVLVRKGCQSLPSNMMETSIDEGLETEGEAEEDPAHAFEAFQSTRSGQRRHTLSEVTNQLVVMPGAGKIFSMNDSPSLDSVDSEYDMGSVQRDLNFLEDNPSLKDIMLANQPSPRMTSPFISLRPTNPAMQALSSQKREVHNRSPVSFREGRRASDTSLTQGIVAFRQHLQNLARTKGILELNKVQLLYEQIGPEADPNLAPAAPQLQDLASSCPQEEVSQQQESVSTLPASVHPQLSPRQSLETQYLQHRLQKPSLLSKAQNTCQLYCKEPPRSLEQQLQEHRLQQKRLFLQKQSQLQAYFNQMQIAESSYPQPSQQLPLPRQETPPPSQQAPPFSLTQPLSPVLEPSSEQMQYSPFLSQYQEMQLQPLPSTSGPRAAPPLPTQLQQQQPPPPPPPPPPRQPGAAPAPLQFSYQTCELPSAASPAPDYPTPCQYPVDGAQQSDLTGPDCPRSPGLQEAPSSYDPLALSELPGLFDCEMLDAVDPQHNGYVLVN

SMILES	IC50 [nM]
CO[C@]1(COc2cnn(C(F)F)c2-c2ccn3nc(Nc4cc(C)nc(C)n4)cc3c2)CCNC1 (single isomer, unassigned) [Example 261, (*R)-5-(1-(difluoromethyl)-4-((3-methoxypyrrolidin-3-yl)methoxy)-1H-pyrazol-5-yl)-N-(2,6-dimethylpyrimidin-4-yl)pyrazolo[1,5-a]pyridin-2-amine]	5.5
Cc1cc(Nc2cc3cc(-c4c(OC[C@@]5(F)CCNC5)cnn4C(F)F)ccn3n2)nc(C)n1 (single isomer, unassigned) [Example 262, (*R)-5-(1-(difluoromethyl)-4-((3-fluoropyrrolidin-3-yl)methoxy)-1H-pyrazol-5-yl)-N-(2,6-dimethylpyrimidin-4-yl)pyrazolo[1,5-a]pyridin-2-amine]	4.7
Cc1cc(Nc2cc3cc(-c4c(OC[C@]5(F)CCNC5)cnn4C(F)F)ccn3n2)nc(C)n1 (single isomer, unassigned) [Example 263, (*S)-5-(1-(difluoromethyl)-4-((3-fluoropyrrolidin-3-yl)methoxy)-1H-pyrazol-5-yl)-N-(2,6-dimethylpyrimidin-4-yl)pyrazolo[1,5-a]pyridin-2-amine]	40.2
Cc1cc(Nc2cc3cc(-c4c(OC[C@H]5COC6(CCCC6)O5)cnn4C)ccn3n2)nc(C)n1 (single isomer, unassigned) [Example 299, (*S)—N-(2,6-dimethylpyrimidin-4-yl)-5-[4-(6,9-dioxaspiro[4.4]nonan-8-ylmethoxy)-2-methyl-pyrazol-3-yl]pyrazolo[1,5-a]pyridin-2-amine]	31.1
Cc1cc(Nc2cc3cc(-c4c(OC[C@](C)(O)C5CC5)cnn4C)ccn3n2)nc(C)n1 (single isomer, unassigned) [Example 304, (*S)-2-cyclopropyl-1-[5-[2-[(2,6-dimethylpyrimidin-4-yl)amino]pyrazolo[1,5-a]pyridin-5-yl]-1-methyl-pyrazol-4-yl]oxy-propan-2-ol]	45.7
Cc1cc(Nc2cc3cc(-c4c(OC[C@@H]5COC(C)(C)C5)cnn4C)ccn3n2)nc(C)n1 (single isomer, unassigned) [Example 307, (*R)—N-(2,6-dimethylpyrimidin-4-yl)-5-[4-[(5,5-dimethyltetrahydrofuran-3-yl)methoxy]-2-methyl-pyrazol-3-yl]pyrazolo[1,5-a]pyridin-2-amine]	30.9
C[C@H]1[C@H](COc2cnn(C)c2-c2ccn3nc(NC(=O)C4CC4)cc3c2)CN1C (single isomer, unassigned) [Example 337, (2*S, 3*R)—N-[5-[4-[(1,2-dimethylazetidin-3-yl)methoxy]-2-methyl-pyrazol-3-yl]pyrazolo[1,5-a]pyridin-2-yl]cyclopropanecarboxamide]	54.4
Cc1cc(Nc2cc3cc(-c4c(O[C@H]5C[C@H]6CC[C@@H]5O6)cnn4C)ccn3n2)nc(C)n1 (single isomer, unassigned) [Example 352, (1*S, 2*S, 4*R)—N-(2,6-dimethylpyrimidin-4-yl)-5-[2-methyl-4-(7-oxabicyclo[2.2.1]heptan-3-yloxy)pyrazol-3-yl]pyrazolo[1,5-a]pyridin-2-amine]	66.8
Cc1cc(Nc2cc3cc(-c4c(OC[C@H](O)C5(C)CC5)cnn4C)ccn3n2)nc(C)n1 (single isomer, unassigned) [Example 356, (1*R)-2-[5-[2-[(2,6-dimethylpyrimidin-4-yl)amino]pyrazolo[1,5-a]pyridin-5-yl]-1-methyl-pyrazol-4-yl]oxy-1-(1-methylcyclopropyl)ethanol]	59.1
Cc1cc(Nc2cc3cc(-c4c(OC[C@@H](O)C5(C)CC5)cnn4C)ccn3n2)nc(C)n1 (single isomer, unassigned) [Example 357, *S-1-methylcyclopropyl-2-[5-[2-[(2,6-dimethylpyrimidin-4-yl)amino]pyrazolo[1,5-a]pyridin-5-yl]-1-methyl-pyrazol-4-yl]oxy-ethanol]	61.9
Cc1cc(Nc2cc3cc(-c4c(OC[C@@H]5CC6(CCC6)CO5)cnn4C)ccn3n2)nc(C)n1 (single isomer, unassigned) [Example 358, *S—N-(2,6-dimethylpyrimidin-4-yl)-5-[2-methyl-4-(7-oxaspiro[3.4]octan-6-ylmethoxy)pyrazol-3-yl]pyrazolo[1,5-a]pyridin-2-amine]	53.5
CO[C@H]1CNC[C@H]1Oc1noc(C)c1-c1ccn2nc(NC(=O)C3CC3)cc2c1 (single isomer, unassigned) [Example 385, (3*R,4*S)—N-[5-[3-(4-methoxypyrrolidin-3-yl)oxy-5-methyl-isoxazol-4-yl]pyrazolo[1,5-a]pyridin-2-yl]cyclopropanecarboxamide]	124
Cn1ncc(OC[C@@H](O)C(F)(F)F)c1-c1ccn2nc(NC(=O)C3CC3)cc2c1 (single isomer, unassigned) [Example 401, (*R)—N-[5-[2-methyl-4-(3,3,3-trifluoro-2-hydroxy-propoxy)pyrazol-3-yl]pyrazolo[1,5-a]pyridin-2-yl]cyclopropanecarboxamide]	107
CO[C@H]1CN(C)C[C@H]1Oc1cnn(C)c1-c1ccn2nc(NC(=O)C3CC3)cc2c1 (single isomer, unassigned) [Example 411, (3*R,4*S)—N-[5-[4-(4-methoxy-1-methyl-pyrrolidin-3-yl)oxy-2-methyl-pyrazol-3-yl]pyrazolo[1,5-a]pyridin-2-yl]cyclopropanecarboxamide]	86.9
C[C@H]1CNC[C@H]1Oc1cnn(C)c1-c1ccn2nc(NC(=O)C3CC3)cc2c1 (single isomer, unassigned) [Example 413, (3*S,4*S)—N-[5-[2-methyl-4-(4-methylpyrrolidin-3-yl)oxy-pyrazol-3-yl]pyrazolo[1,5-a]pyridin-2-yl]cyclopropanecarboxamide]	140
Cn1ncc(O[C@@H]2CNC[C@H]2O)c1-c1ccn2nc(NC(=O)C3CC3)cc2c1 (single isomer, unassigned) [Example 414, (3*R,4*R)—N-[5-[4-(4-hydroxypyrrolidin-3-yl)oxy-2-methyl-pyrazol-3-yl]pyrazolo[1,5-a]pyridin-2-yl]cyclopropanecarboxamide]	98.7
C[C@@H]1CN(C)C[C@@H]1Oc1cnn(C)c1-c1ccn2nc(NC(=O)C3CC3)cc2c1 (single isomer, unassigned) [Example 418, (3*R,4*R)—N-[5-[4-(1,4-dimethylpyrrolidin-3-yl)oxy-2-methyl-pyrazol-3-yl]pyrazolo[1,5-a]pyridin-2-yl]cyclopropanecarboxamide]	102
Cc1cc(Nc2cc3cc(-c4c(OC[C@]5(O)CCOC5)cnn4C)ccn3n2)nc(C)n1 (single isomer, unassigned) [Example 439, (*S)-3-[[5-[2-[(2,6-dimethylpyrimidin-4-yl)amino]pyrazolo[1,5-a]pyridin-5-yl]-1-methyl-pyrazol-4-yl]oxymethyl]tetrahydrofuran-3-ol]	174
Cc1cc(Nc2cc3cc(-c4c(OC[C@]5(C)CCOC5)cnn4C)ccn3n2)nc(C)n1 (single isomer, unassigned) [Example 440, (*S)—N-(2,6-dimethylpyrimidin-4-yl)-5-[2-methyl-4-[(3-methyltetrahydrofuran-3-yl)methoxy]pyrazol-3-yl]pyrazolo[1,5-a]pyridin-2-amine]	70.1
Cc1cc(Nc2cc3cc(-c4c(O[C@H]5C[C@@H]6CC[C@H]5O6)cnn4C)ccn3n2)nc(C)n1 (single isomer, unassigned) [Example 441, (1*R, 2*S, 4*S)—N-(2,6-dimethylpyrimidin-4-yl)-5-[2-methyl-4-(7-oxabicyclo[2.2.1]heptan-3-yloxy)pyrazol-3-yl]pyrazolo[1,5-a]pyridin-2-amine]	72.9
Cc1cc(Nc2cc3cc(-c4c(OC[C@@H]5CC6(CCCC6)CO5)cnn4C)ccn3n2)nc(C)n1 (single isomer, unassigned) [Example 443, (*S)—N-(2,6-dimethylpyrimidin-4-yl)-5-[2-methyl-4-(8-oxaspiro[4.4]nonan-7-ylmethoxy)pyrazol-3-yl]pyrazolo[1,5-a]pyridin-2-amine]	74.3
Cc1cc(Nc2cc3cc(-c4c(OC[C@H](O)C5CCC5)cnn4C)ccn3n2)nc(C)n1 (single isomer, unassigned) [Example 444, (*R)-1-cyclobutyl-2-[5-[2-[(2,6-dimethylpyrimidin-4-yl)amino]pyrazolo[1,5-a]pyridin-5-yl]-1-methyl-pyrazol-4-yl]oxy-ethanol]	155
Cc1cc(Nc2cc3cc(-c4c(O[C@@H]5COC[C@@H]5C)cnn4C)ccn3n2)nc(C)n1 (single isomer, unassigned) [Example 445, (3*S,4*S)—N-(2,6-dimethylpyrimidin-4-yl)-5-[2-methyl-4-(4-methyltetrahydrofuran-3-yl)oxy-pyrazol-3-yl]pyrazolo[1,5-a]pyridin-2-amine]	78.9
Cc1cc(Nc2cc3cc(-c4c(OC[C@]5(C)CCCO5)cnn4C)ccn3n2)nc(C)n1 (single isomer, unassigned) [Example 447, (*S)—N-(2,6-dimethylpyrimidin-4-yl)-5-[2-methyl-4-[(2-methyltetrahydrofuran-2-yl)methoxy]pyrazol-3-yl]pyrazolo[1,5-a]pyridin-2-amine]	69.7
Cc1cc(Nc2cc3cc(-c4c(OC[C@@H]5CC[C@@H]5O)cnn4C)ccn3n2)nc(C)n1 (single isomer, unassigned) [Example 448, (1*S,2*S)-2-[[5-[2-[(2,6-dimethylpyrimidin-4-yl)amino]pyrazolo[1,5-a]pyridin-5-yl]-1-methyl-pyrazol-4-yl]oxymethyl]cyclobutanol]	115
